Measured values from patent US4447603A, “Substituted-6-n-propyl-8-methylimidazo[1,5-d]-as-triazin-4-(3H)-ones” (American Cyanamid Company, priority 1981, dated 1984).

Tested on: histamine release from immunologically stimulated human basophils
Test: inhibition of mediator (histamine) release from immunologically stimulated human basophils
Type: cell-based
Conditions: Leukocyte, 1 h; human basophils (leukocytes) challenged with anti-IgE or antigen, 60 minutes at 37° C.; linear regression; read-out: ED50 (the concentration in μM which causes a 50% inhibition of histamine release)
From the text: The novel compounds of this invention as well as the prior art compound, 6-n-propyl-8-methylimidazo[1,5-d]-as-triazin-4(3H)-one, have been tested by the procedure of Lichtenstein, L. M. and Osler, A. G., J. Exp. Med., 120, 507-530, (1964), which evaluates the ability of compounds to inhibit mediator (histamine) release from immunologically stimluated human basophils.
Dissolve 140.3 g. of sodium chloride, 7.45 g. of potassium chloride and 74.5 g. of Trizma-Tris Pre-Set, Reagent Grade, pH 7.6, at 25° C. (Sigma Chemical Co.) in sufficient water to give a final volume of 2 liters.
(Sigma Chemical Co.) (30 mg./ml.)
Made to 0.075 M and 0.5 M. respectively, with calcium chloride dihydrate and magnesium chloride hexahydrate.
A 10 ml. portion of 10X Tris Buffer and 1.0 ml. of human albumin are diluted to 100 ml. with water.
A 10 ml. portion of 10X Tris Buffer, 1.0 ml. of human albumin. 0.8 ml. of calcium stock and 0.2 ml. of magnesium stock are diluted to 100 ml. with water.
Behring Diagnostics (Generally used at 10 μg. protein/ml. final concentration.)
Strength 1:100 (w:v) allergenic extract, Hollister-Stier Labs. Generally this is diluted 1:1000 to 1:10,000 (considering the vial as stock).
Intradermal solutions or intramuscular preparations for hyposensitization, Hollister-Stier Labs. The final concentration used is on the order of 1 PNU/ml.
Eighty milliliters of blood is withdrawn from subjects with known histamine release to anti-IgE, ragweed antigen or other specific allergen, using four 20 ml. heparinized tubes. This 80 ml. of blood is mixed with 20 ml. of saline containing 0.6 g. of dextrose and 1.2 g. of dextran. The blood is allowed to sediment at room temperature in two 50 ml. polycarbonate centrifuge tubes until a sharp interface develops between the red cells and plasma (60-90 minutes). The plasma (top) layer from each tube is withdrawn by pipet and transferred to respective 50 ml. polycarbonate tubes. The plasma is centrifuged for 8 minutes at 110X g at […] The supernatant is carefully poured off as completely as possible and the cell button is resuspended in 2-3 ml. of Tris-A buffer using a siliconized Pasteur pipet. The resuspension is accomplished by drawing the liquid gently in and out of the pipet, with the tip below the liquid, until an even suspension of cells is obtained. Sufficient Tris-A buffer is then added to bring the volume in the tube to about 45 ml. and the tube is centrifuged at 110X g for 8 minutes at 4° C. The supernatant is poured off and the cell button is resuspended and centrifuged as described above. […]

| IC50 | SMILES |
| --- | --- |
| 87 µM | CCCc1nc(C)c2cn[nH]c(=O)n12 [6-n-propyl-8-methylimidazo[1,5-d]-as-triazin-4(3H)-one, reference compound] |
| 13.1 µM | CCCc1nc(C)c2c(C)n[nH]c(=O)n12 [1,8-Dimethyl-6-n-propylimidazo[1,5-d]-as-triazin-4(3H)-one] |
| 16.1 µM | CCCc1n[nH]c(=O)n2c(CCC)nc(C)c12 [1,6-Di-n-propyl-8-methylimidazo[1,5-d]-as-triazin-4(3H)-one] |
| 12.3 µM | CCCc1nc(C)c2c(CC)n[nH]c(=O)n12 [1-Ethyl-6-n-propyl-8-methylimidazo[1,5-d]-as-triazin-4(3H)-one] |
